Read-outs that look alike come from different tables or passages of the source.
What was measured:
[1] = test system: Polar bear PXR; settings: for Polar bear PXR Relative activation (%): maximum response as percentage of the maximum response to rifampicin; for Relative max induction (polar bear vs human): ratio of maximum induction via pbPXR to hPXR
[2] = molecular target: T1, Human PXR (Homo sapiens, UniProt O75469)
T1 sequence (O75469 107-434): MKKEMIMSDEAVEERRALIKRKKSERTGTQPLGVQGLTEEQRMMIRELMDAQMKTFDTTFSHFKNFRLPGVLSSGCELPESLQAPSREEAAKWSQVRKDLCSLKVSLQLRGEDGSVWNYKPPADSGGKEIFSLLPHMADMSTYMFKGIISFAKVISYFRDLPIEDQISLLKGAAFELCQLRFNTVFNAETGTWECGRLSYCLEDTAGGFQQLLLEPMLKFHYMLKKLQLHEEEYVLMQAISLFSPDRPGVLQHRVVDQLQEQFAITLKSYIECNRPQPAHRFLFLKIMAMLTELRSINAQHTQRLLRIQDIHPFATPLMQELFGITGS

[3] = molecular target: T1, Human PXR; settings: maximum response as percentage of the maximum response to rifampicin
[4] = test system: Polar bear PXR
[5] = test system: polar bear PXR; test: in vitro
[6] = molecular target: T1, Human PXR; test: in vitro

Brc1ccc(Oc2ccc(Br)cc2Br)c(Br)c1 [BDE 47]
Polar bear PXR Relative activation (%) [1]: 16% | Relative max induction (polar bear vs human) [1]: 0.3 | Human PXR RECh20 [2]: 5 µM | Human PXR Relative activation (%) [3]: 59%

Brc1ccc(Oc2cc(Br)c(Br)cc2Br)c(Br)c1 [BDE 99]
Polar bear PXR Relative activation (%) [1]: 16% | Relative max induction (polar bear vs human) [1]: 0.3 | Human PXR RECh20 [2]: 4.8 µM | Human PXR Relative activation (%) [3]: 52%

CO[C@H]1/C=C/O[C@@]2(C)Oc3c(C)c(O)c4c(O)c(c(/C=N/N5CCN(C)CC5)c(O)c4c3C2=O)NC(=O)/C(C)=C\C=C\[C@H](C)[C@H](O)[C@@H](C)[C@@H](O)[C@@H](C)[C@H](OC(C)=O)[C@@H]1C [Rifampicin, reference compound]
Human PXR RECh20 ([2]; human): 0.46 µM | Polar bear PXR RECh20 ([4]; polar bear): 1.1 µM

Clc1cccc(Cl)c1Cl [1,2,3-trichlorobenzene (1,2,3-TCB), 1,2,3-trichlorobenzene]
Polar bear PXR Relative activation (%) [1]: 9% | Relative max induction (polar bear vs human) [1]: 0.9 | Human PXR Relative activation (%) [3]: 9% | fold induction [5]: 0.9 ± 0.3 | fold induction [6]: 0.9 ± 0.1

Clc1ccc(-c2c(Cl)c(Cl)c(Cl)c(Cl)c2Cl)cc1Cl [PCB 190]
Polar bear PXR Relative activation (%) [1]: 18% | Relative max induction (polar bear vs human) [1]: 0.4 | Human PXR Relative activation (%) [3]: 46%

O=c1cc(-c2ccccc2)oc2ccc3ccccc3c12 [β-naphtoflavone (BNF), β-naphtoflavone, reference compound]
Polar bear PXR Relative activation (%) [1]: 21% | Relative max induction (polar bear vs human) [1]: 0.8 | Human PXR RECh20 [2]: 0.069 µM | Human PXR Relative activation (%) [3]: 28% | Polar bear PXR RECh20 [4]: 0.69 µM

O=C(O)C(F)(F)C(F)(F)C(F)(F)C(F)(F)C(F)(F)C(F)(F)C(F)(F)C(F)(F)F [Perfluorononanoic acid (PFNA), Perfluorononanoic acid]
Polar bear PXR Relative activation (%) [1]: 10% | Relative max induction (polar bear vs human) [1]: 0.9 | Human PXR Relative activation (%) [3]: 11%

Clc1ccc(-c2cc(Cl)c(Cl)cc2Cl)cc1Cl [PCB 118]
Polar bear PXR Relative activation (%) [1]: 14% | Relative max induction (polar bear vs human) [1]: 0.6 | Human PXR RECh20 [2]: 34 µM | Human PXR Relative activation (%) [3]: 25%

CC(C)(c1cc(Br)c(O)c(Br)c1)c1cc(Br)c(O)c(Br)c1 [Tetrabromobisphenol A (TBBPA), Tetrabromobisphenol A]
Human PXR RECh20 [2]: 29 µM | Human PXR Relative activation (%) [2]: 32% | Polar bear PXR RECh20 [4]: 35 µM | Polar bear PXR Relative activation (%) [4]: 39% | Relative max induction (polar bear vs human) [4]: 1.2

Clc1cc(Cl)c(-c2ccc(Cl)c(Cl)c2Cl)cc1Cl [PCB 138]
Polar bear PXR Relative activation (%) [1]: 11% | Relative max induction (polar bear vs human) [1]: 0.9 | Human PXR Relative activation (%) [3]: 12%

Clc1cc(Cl)c(-c2cccc(Cl)c2Cl)cc1Cl [PCB 97]
Polar bear PXR Relative activation (%) [1]: 28% | Relative max induction (polar bear vs human) [1]: 1.1 | Human PXR Relative activation (%) [3]: 25%

Clc1cc(Cl)c(-c2c(Cl)cc(Cl)c(Cl)c2Cl)cc1Cl [PCB 183]
Polar bear PXR Relative activation (%) [1]: 31% | Relative max induction (polar bear vs human) [1]: 1.1 | Human PXR Relative activation (%) [3]: 28%

Clc1ccc(-c2ccc(Cl)c(Cl)c2Cl)cc1 [PCB 60]
Polar bear PXR Relative activation (%) [1]: 8% | Relative max induction (polar bear vs human) [1]: 0.7 | Human PXR Relative activation (%) [3]: 10%

Clc1ccc(-c2ccc(Cl)cc2Cl)cc1 [PCB 28]
Polar bear PXR Relative activation (%) [1]: 12% | Relative max induction (polar bear vs human) [1]: 0.6 | Human PXR Relative activation (%) [3]: 19%

Clc1ccc(Cl)c(-c2cc(Cl)ccc2Cl)c1 [PCB 52]
Polar bear PXR Relative activation (%) [1]: 10% | Relative max induction (polar bear vs human) [1]: 0.9 | Human PXR Relative activation (%) [3]: 11%

Clc1ccc(Cl)c(-c2cc(Cl)c(Cl)cc2Cl)c1 [PCB 101]
Polar bear PXR Relative activation (%) [1]: 19% | Relative max induction (polar bear vs human) [1]: 0.6 | Human PXR Relative activation (%) [3]: 34%

Brc1c(Br)c(Br)c(Oc2c(Br)c(Br)c(Br)c(Br)c2Br)c(Br)c1Br [BDE 209]
Polar bear PXR Relative activation (%) [1]: 19% | Relative max induction (polar bear vs human) [1]: 0.7 | Human PXR RECh20 [2]: 16 µM | Human PXR Relative activation (%) [3]: 26%

Clc1ccc(C(c2ccc(Cl)cc2)C(Cl)(Cl)Cl)cc1 [4,4′-DDT, Dichlorodiphenyltrichloroethane]
Polar bear PXR Relative activation (%) [1]: 42% | Relative max induction (polar bear vs human) [1]: 0.8 | Human PXR RECh20 [2]: 9.3 µM | Human PXR Relative activation (%) [3]: 53% | Polar bear PXR RECh20 [4]: 11 µM

Brc1cc(Br)c(Oc2cc(Br)c(Br)cc2Br)cc1Br [BDE 153]
Polar bear PXR Relative activation (%) [1]: 17% | Relative max induction (polar bear vs human) [1]: 0.4 | Human PXR RECh20 ([2]; human): 3.9 µM | Human PXR Relative activation (%) [3]: 45% | fold induction [5]: 1.7 ± 0.1 | fold induction [6]: 4.4 ± 0.2

Brc1ccc(Oc2c(Br)cc(Br)cc2Br)c(Br)c1 [BDE 100]
Polar bear PXR Relative activation (%) [1]: 14% | Relative max induction (polar bear vs human) [1]: 0.4 | Human PXR RECh20 ([2]; human): 6.6 µM | Human PXR Relative activation (%) [3]: 39% | fold induction [5]: 1.3 ± 0.2 | fold induction [6]: 3.8 ± 0.3

Cl[C@H]1[C@H](Cl)[C@H](Cl)[C@@H](Cl)[C@H](Cl)[C@H]1Cl [α-hexachlorocyclohexane (α-HCH), α-hexachlorocyclohexane]
Polar bear PXR Relative activation (%) [1]: 13% | Relative max induction (polar bear vs human) [1]: 0.2 | Human PXR RECh20 ([2]; human): 3.8 µM | Human PXR Relative activation (%) [3]: 57% | fold induction [5]: 1.3 ± 0.8 | fold induction [6]: 5.6 ± 1.5

Brc1ccc(Oc2ccc(Br)cc2Br)cc1 [BDE 28]
Polar bear PXR Relative activation (%) [1]: 9% | Relative max induction (polar bear vs human) [1]: 0.3 | Human PXR RECh20 [2]: 11 µM | Human PXR Relative activation (%) [3]: 31%

Hexabromocyclododecane [HBCD technical mixture]
Polar bear PXR RECh20 [4]: 1.7 µM

Clc1ccc(-c2cc(Cl)c(Cl)c(Cl)c2Cl)c(Cl)c1Cl [PCB 170]
Polar bear PXR Relative activation (%) [1]: 15% | Relative max induction (polar bear vs human) [1]: 0.6 | Human PXR Relative activation (%) [3]: 24%

Clc1ccccc1C(c1ccccc1)(c1ccccc1)n1ccnc1 [Clotrimazole, reference compound]
Polar bear PXR RECh20 ([4]; polar bear): 0.63 µM

Clc1cc(Cl)c(-c2c(Cl)cc(Cl)c(Cl)c2Cl)c(Cl)c1 [PCB 184]
Polar bear PXR Relative activation (%) [1]: 19% | Relative max induction (polar bear vs human) [1]: 0.6 | Human PXR Relative activation (%) [3]: 33%

C[Si]1(C)O[Si](C)(C)O[Si](C)(C)O[Si](C)(C)O1 [Octamethylcyclotetrasiloxane (D4), Octamethylcyclotetrasiloxane]
Polar bear PXR Relative activation (%) [1]: 11% | Relative max induction (polar bear vs human) [1]: 0.3 | Human PXR Relative activation (%) [3]: 44% | fold induction [5]: 1.1 ± 0.4 | fold induction [6]: 4.3 ± 0.3

Clc1ccc(-c2ccc(Cl)cc2Cl)c(Cl)c1 [PCB 47]
Polar bear PXR Relative activation (%) [1]: 14% | Relative max induction (polar bear vs human) [1]: 0.5 | Human PXR Relative activation (%) [3]: 27%

Clc1ccc(Cl)c(Cl)c1 [1,2,4-trichlorobenzene (1,2,4-TCB), 1,2,4-trichlorobenzene]
Polar bear PXR Relative activation (%) [1]: 9% | Relative max induction (polar bear vs human) [1]: 0.9 | Human PXR Relative activation (%) [3]: 10% | fold induction [5]: 0.9 ± 0.3 | fold induction [6]: 1 ± 0.1

Clc1ccc(Cl)c(-c2c(Cl)c(Cl)cc(Cl)c2Cl)c1 [PCB 151]
Polar bear PXR Relative activation (%) [1]: 15% | Relative max induction (polar bear vs human) [1]: 0.2 | Human PXR Relative activation (%) [3]: 72%
